Bridge positions count the residues as written; N and C are the ends. Square brackets hold non-standard residues; d marks the D form. Peptide text beside a SMILES is read from it. Hyp = O=C(O)[C@@H]1C[C@@H](O)CN1; Cit = NC(=O)NCCC[C@H](N)C(=O)O
How the values were obtained:
hAM1 receptor = hAM1 receptor (Homo sapiens, UniProt O60895+Q16602); assay: cAMP assay for in vitro receptor activation, hAM1-R; type: cell-based; conditions: cAMP assay, hAM1 receptor; read-out: hAM1R EC50
How it was run: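 A subcloned monoclonal line stably expressing hAM1 receptor is thawed and plated at 8000 cells/well. The assay buffer is DPBS with 0.05% casein and 0.5 mM IBMX, and receptor activation is followed by cAMP levels.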

[1] = Physical stability of peptide analogues (Thioflavin T fibrillation); type: physicochemical; conditions: maximum ThT signal normalized between hAMY maximum and buffer background; 40° C., shaking, four days; pH 7 per table title
How it was run: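 Samples are stressed at 40 °C for four days, being shaken at 700 rpm before each 10-min fluorescence reading of 4 μM Thioflavin T. Buffers were pH 4 acetate or pH 7 phosphate. Reported values are smoothed maximum ThT signals as a percentage of the hAMY-to-background range.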

hAM1 receptor, sequence (Q16602 23-461): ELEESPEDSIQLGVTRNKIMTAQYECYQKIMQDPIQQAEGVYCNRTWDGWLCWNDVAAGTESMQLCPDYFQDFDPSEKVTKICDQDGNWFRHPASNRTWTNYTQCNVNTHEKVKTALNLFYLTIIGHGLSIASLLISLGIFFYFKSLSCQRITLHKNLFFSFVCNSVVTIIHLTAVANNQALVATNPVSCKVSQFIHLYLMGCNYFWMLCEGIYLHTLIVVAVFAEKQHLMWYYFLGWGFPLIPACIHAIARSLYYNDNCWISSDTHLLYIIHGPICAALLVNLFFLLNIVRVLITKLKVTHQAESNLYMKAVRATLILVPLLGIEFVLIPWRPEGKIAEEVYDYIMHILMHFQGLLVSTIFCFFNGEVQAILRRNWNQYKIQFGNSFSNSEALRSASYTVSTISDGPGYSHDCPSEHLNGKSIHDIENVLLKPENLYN
hAM1 receptor, sequence (O60895 43-175 partner): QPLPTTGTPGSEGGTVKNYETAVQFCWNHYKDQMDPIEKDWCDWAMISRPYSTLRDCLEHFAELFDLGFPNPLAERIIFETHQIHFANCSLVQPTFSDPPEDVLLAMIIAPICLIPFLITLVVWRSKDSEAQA

Structure (SMILES) | EC50 (hAM1 receptor) | Max ThT signal (%) [1]
CC[C@H](C)[C@@H]1NC(=O)[C@H](CCCNC(=N)N)NC(=O)[C@@H](NC(=O)CN)CSSC[C@@H](C(=O)N[C@H](C(=O)N[C@H](C(=O)N[C@@H](CCC(N)=O)C(=O)N[C@@H](Cc2c[nH]c3ccccc23)C(=O)N[C@@H](CC(C)C)C(=O)N[C@@H](C)C(=O)N[C@@H](Cc2c[nH]cn2)C(=O)N[C@@H](CCC(N)=O)C(=O)N[C@H](C(=O)N[C@@H](Cc2ccc(O)cc2)C(=O)N[C@@H](CCC(N)=O)C(=O)N[C@@H](Cc2ccccc2)C(=O)N[C@H](C(=O)N[C@@H](CC(=O)O)C(=O)N[C@@H](CCCCN)C(=O)N[C@@H](Cc2ccccc2)C(=O)N[C@@H](CCCCN)C(=O)N[C@@H](CC(=O)O)C(=O)N[C@@H](CC(N)=O)C(=O)N[C@H](C(=O)N[C@@H](C)C(=O)N2CCC[C@H]2C(=O)N[C@@H](CCCNC(=N)N)C(=O)N[C@@H](CO)C(=O)N[C@@H](CCCCN)C(=O)N[C@H](C(=O)N[C@@H](CO)C(=O)N2CCC[C@H]2C(=O)N[C@@H](CCC(N)=O)C(=O)N[C@H](C(=O)N2C[C@H](O)C[C@H]2C(N)=O)[C@@H](C)O)[C@@H](C)CC)C(C)C)[C@@H](C)O)[C@@H](C)CC)C(C)C)[C@@H](C)O)NC(=O)[C@H]([C@@H](C)O)NC(=O)CNC1=O [compound 351] (H-GCRIGTCTVQWLAHQIYQFTDKFKDNVAPRSKISPQT[Hyp]-NH2; disulfide 2-7; N-terminus assumed) | > 5 µM | 7.200%
CC[C@H](C)[C@H](NC(=O)[C@H](CCC(N)=O)NC(=O)[C@H](Cc1c[nH]cn1)NC(=O)[C@H](C)NC(=O)[C@H](CC(C)C)NC(=O)[C@H](CCCNC(=N)N)NC(=O)[C@H](CCC(N)=O)NC(=O)[C@@H](NC(=O)[C@@H](NC(=O)[C@@H]1CSSC[C@H](NC(=O)CN)C(=O)N[C@@H](CCCNC(=N)N)C(=O)N[C@@H](Cc2ccccc2)C(=O)NCC(=O)N[C@@H]([C@@H](C)O)C(=O)N1)[C@@H](C)O)C(C)C)C(=O)N[C@@H](Cc1ccc(O)cc1)C(=O)N[C@@H](CCC(N)=O)C(=O)N[C@@H](Cc1ccccc1)C(=O)N[C@H](C(=O)N[C@@H](CC(=O)O)C(=O)N[C@@H](CCCCN)C(=O)N[C@@H](CC(=O)O)C(=O)N[C@@H](CCCCN)C(=O)N[C@@H](CC(=O)O)C(=O)N[C@@H](CC(N)=O)C(=O)N[C@H](C(=O)N[C@@H](C)C(=O)N1CCC[C@H]1C(=O)N[C@@H](CO)C(=O)N[C@@H](CO)C(=O)N[C@@H](CCCCN)C(=O)N[C@H](C(=O)N[C@@H](CO)C(=O)N1CCC[C@H]1C(=O)N[C@@H](CCC(N)=O)C(=O)N[C@H](C(=O)N1C[C@H](O)C[C@H]1C(N)=O)[C@@H](C)O)[C@@H](C)CC)C(C)C)[C@@H](C)O [compound 240] (H-GCRFGTCTVQRLAHQIYQFTDKDKDNVAPSSKISPQT[Hyp]-NH2; disulfide 2-7; N-terminus assumed) | > 5 µM | 3.700%
CC(C)C[C@H](NC(=O)[C@H](Cc1c[nH]c2ccccc12)NC(=O)[C@H](CCC(N)=O)NC(=O)[C@@H](NC(=O)[C@@H](NC(=O)[C@@H]1CSSC[C@H](NC(=O)CN)C(=O)N[C@@H](CCCNC(=N)N)C(=O)N[C@@H](Cc2ccccc2)C(=O)NCC(=O)N[C@@H]([C@@H](C)O)C(=O)N1)[C@@H](C)O)C(C)C)C(=O)N[C@@H](C)C(=O)N[C@@H](CC(N)=O)C(=O)N[C@@H](Cc1ccccc1)C(=O)N[C@@H](CC(C)C)C(=O)N[C@@H](Cc1ccc(O)cc1)C(=O)N[C@@H](CCC(N)=O)C(=O)N[C@@H](Cc1ccccc1)C(=O)N[C@H](C(=O)N[C@@H](CC(=O)O)C(=O)N[C@@H](CCCCN)C(=O)N[C@@H](CC(=O)O)C(=O)N[C@@H](CCCCN)C(=O)N[C@@H](CC(=O)O)C(=O)N[C@@H](CC(N)=O)C(=O)N[C@H](C(=O)N[C@@H](C)C(=O)N1CCC[C@H]1C(=O)N[C@@H](CCCNC(=N)N)C(=O)N[C@H](C(=O)N[C@@H](CC(N)=O)C(=O)N[C@H](C(=O)NCC(=O)N1CCC[C@H]1C(=O)N[C@@H](CCC(N)=O)C(=O)NCC(=O)N[C@@H](Cc1ccc(O)cc1)C(N)=O)C(C)C)[C@@H](C)O)C(C)C)[C@@H](C)O [compound 311] (H-GCRFGTCTVQWLANFLYQFTDKDKDNVAPRTNVGPQGY-NH2; disulfide 2-7; N-terminus assumed) | > 5 µM | 6.450%
CC[C@H](C)[C@H](NC(=O)[C@H](CCC(N)=O)NC(=O)[C@H](Cc1c[nH]cn1)NC(=O)[C@H](C)NC(=O)[C@H](CC(C)C)NC(=O)[C@H](CCCNC(N)=O)NC(=O)[C@H](CCC(N)=O)NC(=O)[C@@H](NC(=O)[C@@H](NC(=O)[C@@H]1CSSC[C@H](NC(=O)CN)C(=O)N[C@@H](CCCNC(=N)N)C(=O)N[C@@H]([C@@H](C)O)C(=O)NCC(=O)N[C@@H]([C@@H](C)O)C(=O)N1)[C@@H](C)O)C(C)C)C(=O)N[C@@H](Cc1ccc(O)cc1)C(=O)N[C@@H](CCC(N)=O)C(=O)N[C@@H](Cc1ccccc1)C(=O)N[C@H](C(=O)N[C@@H](CC(=O)O)C(=O)N[C@@H](CCCCN)C(=O)N[C@@H](CC(=O)O)C(=O)N[C@@H](CCCCN)C(=O)N[C@@H](CC(=O)O)C(=O)N[C@@H](CC(N)=O)C(=O)N[C@H](C(=O)N[C@@H](C)C(=O)N1CCC[C@H]1C(=O)N[C@@H](CCCNC(=N)N)C(=O)N[C@@H](CO)C(=O)N[C@@H](CC(N)=O)C(=O)N[C@H](C(=O)N[C@@H](CO)C(=O)N1CCC[C@H]1C(=O)N[C@@H](CC(N)=O)C(=O)NCC(=O)N1C[C@H](O)C[C@H]1C(N)=O)C(C)C)C(C)C)[C@@H](C)O [compound 304] (H-GCRTGTCTVQ[Cit]LAHQIYQFTDKDKDNVAPRSNVSPNG[Hyp]-NH2; disulfide 2-7) | > 5 µM | 22.350%

Next, values leading:

EC50 (hAM1 receptor) | Max ThT signal (%) [1] | Structure (SMILES)
> 5 µM | 19.700% | CC[C@H](C)[C@H](NC(=O)[C@H](CCC(N)=O)NC(=O)[C@H](Cc1c[nH]cn1)NC(=O)[C@H](C)NC(=O)[C@H](CC(C)C)NC(=O)[C@H](CCCNC(N)=O)NC(=O)[C@H](CCC(N)=O)NC(=O)[C@@H](NC(=O)[C@@H](NC(=O)[C@@H]1CSSC[C@H](NC(=O)CN)C(=O)N[C@@H](CCCNC(=N)N)C(=O)N[C@@H]([C@@H](C)O)C(=O)NCC(=O)N[C@@H]([C@@H](C)O)C(=O)N1)[C@@H](C)O)C(C)C)C(=O)N[C@@H](Cc1ccc(O)cc1)C(=O)N[C@@H](CCC(N)=O)C(=O)N[C@@H](Cc1ccccc1)C(=O)N[C@H](C(=O)N[C@@H](CC(=O)O)C(=O)N[C@@H](CCCCN)C(=O)N[C@@H](CC(=O)O)C(=O)N[C@@H](CCCCN)C(=O)N[C@@H](CC(=O)O)C(=O)N[C@@H](CC(N)=O)C(=O)N[C@H](C(=O)N[C@@H](C)C(=O)N1CCC[C@H]1C(=O)N[C@@H](CCCNC(=N)N)C(=O)N[C@H](C(=O)N[C@@H](CCCCN)C(=O)N[C@H](C(=O)NCC(=O)N1CCC[C@H]1C(=O)N[C@@H](CCC(N)=O)C(=O)NCC(=O)N1C[C@H](O)C[C@H]1C(N)=O)C(C)C)[C@@H](C)O)C(C)C)[C@@H](C)O [compound 292] (H-GCRTGTCTVQ[Cit]LAHQIYQFTDKDKDNVAPRTKVGPQG[Hyp]-NH2; disulfide 2-7; N-terminus assumed)
> 5 µM | 31.250% | CC[C@H](C)[C@H](NC(=O)[C@H](CCC(N)=O)NC(=O)[C@H](Cc1c[nH]cn1)NC(=O)[C@H](C)NC(=O)[C@H](CC(C)C)NC(=O)[C@H](CCCNC(N)=O)NC(=O)[C@H](CCC(N)=O)NC(=O)[C@@H](NC(=O)[C@@H](NC(=O)[C@@H]1CSSC[C@H](NC(=O)CN)C(=O)N[C@@H](CCCNC(=N)N)C(=O)N[C@@H]([C@@H](C)O)C(=O)NCC(=O)N[C@@H]([C@@H](C)O)C(=O)N1)[C@@H](C)O)C(C)C)C(=O)N[C@@H](Cc1ccc(O)cc1)C(=O)N[C@@H](CCC(N)=O)C(=O)N[C@@H](Cc1ccccc1)C(=O)N[C@H](C(=O)N[C@@H](CC(=O)O)C(=O)N[C@@H](CCCCN)C(=O)N[C@@H](CC(=O)O)C(=O)N[C@@H](CCCCN)C(=O)N[C@@H](CC(=O)O)C(=O)N[C@@H](CC(N)=O)C(=O)N[C@H](C(=O)N[C@@H](C)C(=O)N1CCC[C@H]1C(=O)N[C@@H](CCCNC(=N)N)C(=O)N[C@H](C(=O)N[C@@H](CCCCN)C(=O)N[C@H](C(=O)NCC(=O)N1CCC[C@H]1C(=O)N[C@@H](CCC(N)=O)C(=O)NCC(=O)N[C@@H](Cc1ccc(O)cc1)C(N)=O)C(C)C)[C@@H](C)O)C(C)C)[C@@H](C)O [compound 298] (H-GCRTGTCTVQ[Cit]LAHQIYQFTDKDKDNVAPRTKVGPQGY-NH2; disulfide 2-7; N-terminus assumed)
> 5 µM | 18.150% | CC[C@H](C)[C@H](NC(=O)[C@H](CC(N)=O)NC(=O)[C@H](CO)NC(=O)[C@H](CCCNC(=N)N)NC(=O)[C@@H]1CCCN1C(=O)[C@H](C)NC(=O)[C@@H](NC(=O)[C@H](CC(N)=O)NC(=O)[C@H](CC(=O)O)NC(=O)[C@H](CCCCN)NC(=O)[C@H](CC(=O)O)NC(=O)[C@H](CCCCN)NC(=O)[C@H](CC(=O)O)NC(=O)[C@@H](NC(=O)[C@H](Cc1ccccc1)NC(=O)[C@H](CCC(N)=O)NC(=O)[C@H](Cc1ccc(O)cc1)NC(=O)[C@@H](NC(=O)[C@H](CCC(N)=O)NC(=O)[C@H](Cc1c[nH]cn1)NC(=O)[C@H](C)NC(=O)[C@H](CC(C)C)NC(=O)[C@H](CCCNC(N)=O)NC(=O)[C@H](CCC(N)=O)NC(=O)[C@@H](NC(=O)[C@@H](NC(=O)[C@@H]1CSSC[C@H](NC(=O)CN)C(=O)N[C@@H](CCCNC(=N)N)C(=O)N[C@@H]([C@@H](C)O)C(=O)NCC(=O)N[C@@H]([C@@H](C)O)C(=O)N1)[C@@H](C)O)C(C)C)[C@@H](C)CC)[C@@H](C)O)C(C)C)C(=O)NCC(=O)N1CCC[C@H]1C(=O)N[C@@H](CCC(N)=O)C(=O)NCC(=O)N1C[C@H](O)C[C@H]1C(N)=O [compound 303] (H-GCRTGTCTVQ[Cit]LAHQIYQFTDKDKDNVAPRSNIGPQG[Hyp]-NH2; disulfide 2-7)

— patent US12139520B2 (priority 2020, dated 2024)
